Data taken from ChEMBL document CHEMBL3627674, “Discovery of wrightiadione as a novel template for the TrkA kinase inhibitors” (Bioorg Med Chem Lett, 2015).

What was measured:
[1] = target: High affinity nerve growth factor receptor (Homo sapiens, UniProt P04629); assay: Inhibition of TrkA (unknown origin) by radiometric analysis in presence of [gamma-33P]-ATP
[2] = target: Atypical kinase COQ8A, mitochondrial (Homo sapiens) (UniProt Q8NI60); assay: Inhibition of ADCK3 (unknown origin) assessed as remaining activity at 10 uM by high-throughput assay relative to control
Chain of Atypical kinase COQ8A, mitochondrial (Homo sapiens) (Q8NI60 163-647 limits assumed): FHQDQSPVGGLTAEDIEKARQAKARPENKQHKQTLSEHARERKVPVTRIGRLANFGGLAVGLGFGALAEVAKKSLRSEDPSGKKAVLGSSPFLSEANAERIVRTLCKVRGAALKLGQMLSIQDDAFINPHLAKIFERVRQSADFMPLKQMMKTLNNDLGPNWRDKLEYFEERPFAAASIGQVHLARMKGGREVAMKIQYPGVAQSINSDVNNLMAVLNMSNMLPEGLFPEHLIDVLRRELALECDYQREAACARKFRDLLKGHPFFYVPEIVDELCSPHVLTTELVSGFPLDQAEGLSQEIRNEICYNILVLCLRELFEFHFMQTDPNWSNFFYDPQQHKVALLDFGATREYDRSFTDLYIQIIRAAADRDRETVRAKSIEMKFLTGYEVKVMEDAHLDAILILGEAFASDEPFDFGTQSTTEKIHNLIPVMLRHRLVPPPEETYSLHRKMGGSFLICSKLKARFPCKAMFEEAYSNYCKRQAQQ

[3] = target: Aurora kinase B (Homo sapiens) (UniProt Q96GD4); assay: Inhibition of AURKB (unknown origin) assessed as remaining activity at 10 uM by high-throughput assay relative to control
Chain of Aurora kinase B (Homo sapiens) (Q96GD4 whole entry): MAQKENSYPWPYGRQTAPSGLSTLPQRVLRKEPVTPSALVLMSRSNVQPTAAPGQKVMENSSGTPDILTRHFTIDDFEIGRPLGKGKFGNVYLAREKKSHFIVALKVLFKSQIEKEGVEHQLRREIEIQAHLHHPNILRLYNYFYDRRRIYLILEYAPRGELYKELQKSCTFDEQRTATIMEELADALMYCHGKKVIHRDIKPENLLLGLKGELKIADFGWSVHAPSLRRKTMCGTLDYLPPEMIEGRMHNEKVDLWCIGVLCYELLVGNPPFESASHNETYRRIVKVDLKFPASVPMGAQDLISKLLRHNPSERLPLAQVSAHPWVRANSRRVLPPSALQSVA

[4] = target: Cyclin-dependent kinase 2 (Homo sapiens) (UniProt P24941); assay: Inhibition of CDK2 (unknown origin) assessed as remaining activity at 10 uM by high-throughput assay relative to control
[5] = target: Cyclin-dependent kinase 7 (Homo sapiens) (UniProt P50613); assay: Inhibition of CDK7 (unknown origin) assessed as remaining activity at 10 uM by high-throughput assay relative to control
[6] = target: Receptor tyrosine-protein kinase erbB-2 (Homo sapiens) (UniProt P04626); assay: Inhibition of ERBB2 (unknown origin) assessed as remaining activity at 10 uM by high-throughput assay relative to control
[7] = target: Glycogen synthase kinase-3 beta (Homo sapiens) (UniProt P49841); assay: Inhibition of GSK3B (unknown origin) assessed as remaining activity at 10 uM by high-throughput assay relative to control
[8] = target: Inhibitor of nuclear factor kappa-B kinase subunit beta (Homo sapiens) (UniProt O14920); assay: Inhibition of IKK-beta (unknown origin) assessed as remaining activity at 10 uM by high-throughput assay relative to control
[9] = target: Mitogen-activated protein kinase 9 (Homo sapiens) (UniProt P45984); assay: Inhibition of JNK2 (unknown origin) assessed as remaining activity at 10 uM by high-throughput assay relative to control
[10] = target: Mast/stem cell growth factor receptor Kit (Homo sapiens) (UniProt P10721); assay: Inhibition of KIT (unknown origin) assessed as remaining activity at 10 uM by high-throughput assay relative to control
Chain of Mast/stem cell growth factor receptor Kit (Homo sapiens) (P10721 whole entry): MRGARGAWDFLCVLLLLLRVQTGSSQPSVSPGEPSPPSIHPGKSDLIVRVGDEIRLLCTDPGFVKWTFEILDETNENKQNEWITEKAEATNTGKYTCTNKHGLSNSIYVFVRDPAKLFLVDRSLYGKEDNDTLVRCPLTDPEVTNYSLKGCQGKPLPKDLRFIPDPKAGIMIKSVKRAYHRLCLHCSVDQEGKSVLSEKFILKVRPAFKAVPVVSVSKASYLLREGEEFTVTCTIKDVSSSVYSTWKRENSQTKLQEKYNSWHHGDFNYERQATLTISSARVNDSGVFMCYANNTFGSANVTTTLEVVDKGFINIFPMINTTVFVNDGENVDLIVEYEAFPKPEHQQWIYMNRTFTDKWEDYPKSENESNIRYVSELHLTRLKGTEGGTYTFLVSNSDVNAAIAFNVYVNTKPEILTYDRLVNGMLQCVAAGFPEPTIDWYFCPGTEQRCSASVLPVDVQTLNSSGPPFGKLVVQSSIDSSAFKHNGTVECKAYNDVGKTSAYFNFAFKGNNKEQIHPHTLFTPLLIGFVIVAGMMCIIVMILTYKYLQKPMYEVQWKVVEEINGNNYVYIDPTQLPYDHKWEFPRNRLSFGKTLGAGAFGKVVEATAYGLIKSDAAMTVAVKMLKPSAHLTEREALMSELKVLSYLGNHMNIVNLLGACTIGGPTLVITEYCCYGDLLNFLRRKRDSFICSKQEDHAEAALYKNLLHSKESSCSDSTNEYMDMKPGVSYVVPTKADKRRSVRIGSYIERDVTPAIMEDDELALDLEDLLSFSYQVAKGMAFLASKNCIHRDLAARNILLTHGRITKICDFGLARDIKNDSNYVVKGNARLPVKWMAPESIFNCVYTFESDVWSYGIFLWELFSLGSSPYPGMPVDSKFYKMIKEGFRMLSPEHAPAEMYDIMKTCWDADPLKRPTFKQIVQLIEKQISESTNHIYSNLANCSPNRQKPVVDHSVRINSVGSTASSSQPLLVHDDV

[11] = tested on: Mast/stem cell growth factor receptor Kit (Homo sapiens), P10721 [V559D,T670I]; assay: Inhibition of KIT V559D/T670I double mutant (unknown origin) assessed as remaining activity at 10 uM by high-throughput assay relative to control
Chain of Mast/stem cell growth factor receptor Kit (Homo sapiens), P10721 [V559D,T670I] (P10721 whole entry V559D/T670I): as the sequence (P10721 whole entry) above, with V559D, T670I counted along it

[12] = target: Mitogen-activated protein kinase kinase kinase 4 (Homo sapiens) (UniProt Q9Y6R4); assay: Inhibition of MAP3K4 (unknown origin) assessed as remaining activity at 10 uM by high-throughput assay relative to control
[13] = target: Mitogen-activated protein kinase 14 (Homo sapiens) (UniProt Q16539); assay: Inhibition of p38-alpha (unknown origin) assessed as remaining activity at 10 uM by high-throughput assay relative to control
Chain of Mitogen-activated protein kinase 14 (Homo sapiens) (Q16539 whole entry): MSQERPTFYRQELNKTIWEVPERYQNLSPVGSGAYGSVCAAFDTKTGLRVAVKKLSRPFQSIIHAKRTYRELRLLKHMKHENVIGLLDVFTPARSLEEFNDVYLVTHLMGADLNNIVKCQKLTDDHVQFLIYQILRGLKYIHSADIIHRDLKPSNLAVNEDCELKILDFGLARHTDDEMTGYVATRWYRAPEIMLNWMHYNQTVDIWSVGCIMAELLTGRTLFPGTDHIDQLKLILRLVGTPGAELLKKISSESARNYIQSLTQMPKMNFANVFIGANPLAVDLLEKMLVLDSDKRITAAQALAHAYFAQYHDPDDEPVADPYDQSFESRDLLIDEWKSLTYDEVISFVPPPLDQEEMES

[14] = target: Platelet-derived growth factor receptor beta (Homo sapiens) (UniProt P09619); assay: Inhibition of PDGFRB (unknown origin) assessed as remaining activity at 10 uM by high-throughput assay relative to control
[15] = target: Serine/threonine-protein kinase pim-3 (Homo sapiens) (UniProt Q86V86); assay: Inhibition of PIM3 (unknown origin) assessed as remaining activity at 10 uM by high-throughput assay relative to control
[16] = target: cAMP-dependent protein kinase catalytic subunit alpha (Homo sapiens) (UniProt P17612); assay: Inhibition of PKAC-alpha (unknown origin) assessed as remaining activity at 10 uM by high-throughput assay relative to control
[17] = target: Serine/threonine-protein kinase PLK4 (Homo sapiens) (UniProt O00444); assay: Inhibition of PLK4 (unknown origin) assessed as remaining activity at 10 uM by high-throughput assay relative to control
[18] = target: RAF proto-oncogene serine/threonine-protein kinase (Homo sapiens) (UniProt P04049); assay: Inhibition of RAF1 (unknown origin) assessed as remaining activity at 10 uM by high-throughput assay relative to control
[19] = target: Serine/threonine-protein kinase RIO2 (Homo sapiens) (UniProt Q9BVS4); assay: Inhibition of RIOK2 (unknown origin) assessed as remaining activity at 10 uM by high-throughput assay relative to control
Chain of Serine/threonine-protein kinase RIO2 (Homo sapiens) (Q9BVS4 whole entry, looked up): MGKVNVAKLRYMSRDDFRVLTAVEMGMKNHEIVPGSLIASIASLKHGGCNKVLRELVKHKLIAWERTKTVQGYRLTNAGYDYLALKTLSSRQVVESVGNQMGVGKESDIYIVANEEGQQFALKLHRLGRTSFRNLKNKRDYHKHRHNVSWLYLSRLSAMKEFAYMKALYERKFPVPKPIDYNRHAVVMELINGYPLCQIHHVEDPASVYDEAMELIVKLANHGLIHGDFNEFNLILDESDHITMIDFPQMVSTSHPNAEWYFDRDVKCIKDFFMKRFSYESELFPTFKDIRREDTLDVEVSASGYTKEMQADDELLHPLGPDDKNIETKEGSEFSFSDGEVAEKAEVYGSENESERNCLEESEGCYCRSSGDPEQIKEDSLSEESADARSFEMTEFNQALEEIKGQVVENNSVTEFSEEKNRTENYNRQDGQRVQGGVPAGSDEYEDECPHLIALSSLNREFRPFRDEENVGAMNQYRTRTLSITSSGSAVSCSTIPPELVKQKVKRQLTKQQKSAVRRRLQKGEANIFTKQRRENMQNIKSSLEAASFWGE

[20] = target: Rho-associated protein kinase 2 (Homo sapiens) (UniProt O75116); assay: Inhibition of ROCK2 (unknown origin) assessed as remaining activity at 10 uM by high-throughput assay relative to control
Chain of Rho-associated protein kinase 2 (Homo sapiens) (O75116 whole entry, looked up): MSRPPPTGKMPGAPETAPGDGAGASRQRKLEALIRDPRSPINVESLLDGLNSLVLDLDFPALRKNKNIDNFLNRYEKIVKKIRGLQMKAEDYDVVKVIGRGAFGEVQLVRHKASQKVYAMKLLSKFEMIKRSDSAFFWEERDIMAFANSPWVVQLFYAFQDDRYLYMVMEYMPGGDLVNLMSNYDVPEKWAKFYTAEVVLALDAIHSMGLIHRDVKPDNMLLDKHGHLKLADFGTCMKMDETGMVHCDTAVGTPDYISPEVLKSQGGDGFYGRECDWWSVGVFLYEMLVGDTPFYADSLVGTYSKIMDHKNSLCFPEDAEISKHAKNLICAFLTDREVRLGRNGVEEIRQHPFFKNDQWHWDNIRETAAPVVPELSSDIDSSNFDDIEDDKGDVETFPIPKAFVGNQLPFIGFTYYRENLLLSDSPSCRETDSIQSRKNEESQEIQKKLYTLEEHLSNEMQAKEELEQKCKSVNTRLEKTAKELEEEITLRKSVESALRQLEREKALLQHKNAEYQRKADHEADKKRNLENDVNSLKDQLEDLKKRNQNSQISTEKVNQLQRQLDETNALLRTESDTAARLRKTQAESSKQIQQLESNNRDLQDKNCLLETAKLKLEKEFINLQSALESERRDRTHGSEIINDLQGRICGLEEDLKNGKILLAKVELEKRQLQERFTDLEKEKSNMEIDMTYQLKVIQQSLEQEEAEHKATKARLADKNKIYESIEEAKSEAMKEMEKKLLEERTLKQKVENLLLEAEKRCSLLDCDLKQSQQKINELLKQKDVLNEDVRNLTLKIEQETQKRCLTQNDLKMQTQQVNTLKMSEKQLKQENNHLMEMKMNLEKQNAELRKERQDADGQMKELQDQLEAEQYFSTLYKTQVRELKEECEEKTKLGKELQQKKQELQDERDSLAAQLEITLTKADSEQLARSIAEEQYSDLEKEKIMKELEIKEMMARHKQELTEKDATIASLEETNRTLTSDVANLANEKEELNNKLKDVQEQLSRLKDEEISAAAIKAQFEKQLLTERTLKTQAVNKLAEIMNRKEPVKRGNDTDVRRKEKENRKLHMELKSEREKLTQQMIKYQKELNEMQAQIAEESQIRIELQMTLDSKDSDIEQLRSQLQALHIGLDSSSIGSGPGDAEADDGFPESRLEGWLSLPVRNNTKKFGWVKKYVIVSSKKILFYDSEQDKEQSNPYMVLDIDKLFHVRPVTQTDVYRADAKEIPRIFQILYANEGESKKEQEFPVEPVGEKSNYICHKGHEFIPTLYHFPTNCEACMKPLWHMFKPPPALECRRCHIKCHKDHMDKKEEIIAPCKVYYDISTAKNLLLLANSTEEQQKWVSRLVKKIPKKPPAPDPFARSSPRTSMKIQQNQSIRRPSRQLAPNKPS

[21] = target: NUAK family SNF1-like kinase 2 (Homo sapiens) (UniProt Q9H093); assay: Inhibition of SNARK (unknown origin) assessed as remaining activity at 10 uM by high-throughput assay relative to control
[22] = target: Proto-oncogene tyrosine-protein kinase Src (Homo sapiens) (UniProt P12931); assay: Inhibition of SRC (unknown origin) assessed as remaining activity at 10 uM by high-throughput assay relative to control
Chain of Proto-oncogene tyrosine-protein kinase Src (Homo sapiens) (P12931 2-536 limits assumed): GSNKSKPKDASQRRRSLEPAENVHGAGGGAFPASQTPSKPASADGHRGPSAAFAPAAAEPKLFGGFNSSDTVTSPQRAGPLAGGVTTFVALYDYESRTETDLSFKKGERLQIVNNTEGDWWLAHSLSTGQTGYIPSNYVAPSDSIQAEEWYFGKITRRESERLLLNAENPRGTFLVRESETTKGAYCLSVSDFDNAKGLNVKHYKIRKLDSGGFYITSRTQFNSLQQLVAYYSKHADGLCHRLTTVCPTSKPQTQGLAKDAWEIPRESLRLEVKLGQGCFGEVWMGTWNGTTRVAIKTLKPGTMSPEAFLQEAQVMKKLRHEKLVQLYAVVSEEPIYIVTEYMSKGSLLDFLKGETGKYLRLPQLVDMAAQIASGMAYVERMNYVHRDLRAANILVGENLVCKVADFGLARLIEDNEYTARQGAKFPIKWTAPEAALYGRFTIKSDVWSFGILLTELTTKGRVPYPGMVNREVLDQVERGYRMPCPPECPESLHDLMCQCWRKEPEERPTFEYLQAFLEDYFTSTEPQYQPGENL

[23] = target: SRSF protein kinase 3 (Homo sapiens) (UniProt Q9UPE1); assay: Inhibition of SRPK3 (unknown origin) assessed as remaining activity at 10 uM by high-throughput assay relative to control
[24] = target: Non-receptor tyrosine-protein kinase TYK2 (Homo sapiens) (UniProt P29597); assay: Inhibition of TYK2 JH1 catalytic domain (unknown origin) assessed as remaining activity at 10 uM by high-throughput assay relative to control

Question: Which results are given for O=C1c2ccccc2-c2c1oc1ccccc1c2=O?
Answer: IC50 [1]: 55.8 µM; Activity [2]: 73%; Activity [3]: 66%; Activity [4]: 82%; Activity [5]: 59%; Activity [6]: 92%; Activity [7]: 77%; Activity [8]: 73%; Activity [9]: 49%; Activity [10]: 38%; Activity [11]: 65%; Activity [12]: 91%; Activity [13]: 95%; Activity [14]: 45%; Activity [15]: 94%; Activity [16]: 92%; Activity [17]: 80%; Activity [18]: 92%; Activity [19]: 70%; Activity [20]: 79%; Activity [21]: 70%; Activity [22]: 83%; Activity [23]: 73%; Activity [24]: 44%
